In ChEMBL document CHEMBL6096681, “Examining Arginase-1 Trimerization Uncovers a Promising Allosteric Site for Inhibition” (J Med Chem, 2025):
Activity calls are given as the source filed them. No cut-off for these calls is given here.

How the values were obtained:
[1] = target: T1, Arginase-1 (Homo sapiens) (UniProt P05089); experiment: Inhibition of full length N-terminal his6-tagged human ARG-1 expressed in Escherichia coli BL21 (DE3) cells upto 20 mM incubated for 24 hrs by coomassie blue staining based SDS/PAGE analysis
T1 sequence (whole entry): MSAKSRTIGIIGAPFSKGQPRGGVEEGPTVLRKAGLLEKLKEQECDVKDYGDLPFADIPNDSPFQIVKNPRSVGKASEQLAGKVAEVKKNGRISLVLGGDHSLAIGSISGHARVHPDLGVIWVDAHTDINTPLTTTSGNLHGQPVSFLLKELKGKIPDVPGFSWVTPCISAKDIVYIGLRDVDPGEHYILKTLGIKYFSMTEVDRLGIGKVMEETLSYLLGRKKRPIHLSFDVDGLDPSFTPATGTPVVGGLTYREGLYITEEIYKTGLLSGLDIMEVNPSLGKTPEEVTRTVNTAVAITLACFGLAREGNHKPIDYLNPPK

[2] = target: T1, Arginase-1 (Homo sapiens); experiment: Binding affinity to N-terminal his6-tagged truncated human ARG-1 expressed in Escherichia coli BL21 (DE3) cells assessed as thermal stabilization at 20 mM measured for 24 hrs by nanoDSF analysis
Homo sapiens = species: Homo sapiens; experiment: Inhibition of full length N-terminal his6-tagged human ARG-1 R205A mutant expressed in Escherichia coli BL21 (DE3) cells by mass spectrometry analysis
[3] = target: T1, Arginase-1 (Homo sapiens); experiment: Binding affinity to full length N-terminal his6-tagged human ARG-1 expressed in Escherichia coli BL21 (DE3) cells assessed as thermal stabilization at 0.625 to 20 mM measured for 24 hrs by nanoDSF analysis; settings: dose 0.625-20 mM
[4] = target: T1, Arginase-1 (Homo sapiens); experiment: Inhibition of full length N-terminal his6-tagged human ARG-1 expressed in Escherichia coli BL21 (DE3) cells at 10 mM incubated for 24 hrs relative to control
[5] = target: T1, Arginase-1 (Homo sapiens); experiment: Inhibition of N-terminal his6-tagged truncated human ARG-1 expressed in Escherichia coli BL21 (DE3) cells at 10 mM incubated for 24 hrs

- inhibition [1]: Active
- Activity [2]: Active
- Activity [3]: Active
- inhibition [4]: 30%
- inhibition [5]: Active
SMILES: O=CC(=O)c1ccccc1
- inhibition (Homo sapiens): Active
